# Earlier results as cited in patent US20170274026A1, “METHOD OF MAKING TRITERPENOIDS FROM PETRI DISH CULTUREDANTRODIA CINNAMOMEA” (Ultra-Microrigin Biomedical Technology Co., Ltd., priority 2016, published 2017).
# Test system: cancer cells
# Settings: Toxicology in Vitro and International Journal of Gerontology
compound,measurement,value
"C=C(CC[C@@H](C(=O)O)[C@H]1C[C@H](O)[C@@]2(C)C3=CC[C@H]4C(C)(C)[C@@H](O)CC[C@]4(C)C3=CC[C@]12C)C(C)C [MMH01, dehydrosulphurenic acid]",anti-tumor effect and repressing the growth of cancer cells,effective in anti-tumor and repressing the growth of cancer cells
